Assay results: US20120121508A1, “RADIOLABELED CGRP ANTAGONISTS” (Merck Sharp & Dohme Corp., priority 2009, published 2012)
Where “and” joins values, the source holds several entries; their conditions need not be identical. Equal entries are not always repeated.

How the values were obtained:
[1] = target: human AMY1 receptor (CTR/RAMP1) (Homo sapiens, UniProt O60894+P30988); test: Amylin 1 receptor binding
Procedure: (§1) The compound of Example 1 was evaluated against the related amylin 1 (AMY1; CTR/RAMP1) and amylin 3 (AMY3; CTR/RAMP3) receptors. […] Although the compound of Example 1 binds with high affinity to the related AMY1 receptor, this is not anticipated to negatively impact the utility of this molecule as a suitable PET tracer. […] Since the methods used to quantify CGRP receptor occupancy rely primarily on the cerebellar region, the affinity of the compound of Example 1 for AMY1 receptor should not interfere with the use of the PET tracer to accurately determine CGRP receptor occupancy.

[2] = target: T1, human CGRP receptor (CL receptor/RAMP1) (Homo sapiens, UniProt O60894+Q16602); test: Recombinant receptor binding assay vs [^125I]CGRP
T1 construct: expressed in transfected cells
Procedure: RECOMBINANT RECEPTOR: Human CL receptor (Genbank accession number L76380) was subcloned into the expression vector pIREShyg2 (BD Biosciences Clontech) as a 5′NheI and 3′ PmeI fragment. Human RAMP1 (Genbank accession number AJ001014) was subcloned into the expression vector pIRESpuro2 (BD Biosciences Clontech) as a 5′NheI and 3′NotI fragment. HEK 293 cells (human embryonic kidney cells; ATCC #CRL-1573) were cultured in DMEM with 4.5 g/L glucose, 1 mM sodium pyruvate and 2 mM glutamine supplemented with 10% fetal bovine serum (FBS), 100 units/mL penicillin and 100 μg/mL streptomycin, and maintained at 37° C. and 95% humidity. Cells were subcultured by treatment with 0.25% trypsin with 0.1% EDTA in HBSS. Stable cell line generation was accomplished by co-transfecting 10 μg of DNA with 30 μg Lipofectamine 2000 (Invitrogen) in 75 cm^2 flasks. CL receptor and RAMP1 expression constructs were co-transfected in equal amounts. Twenty-four hours after transfection the cells were diluted and selective medium (growth medium+300 μg/mL hygromycin and 1 μg/mL puromycin) was added the following day. […]
(§2) The octanol/water partition coefficient (Log P) of the compound of Example 1 was determined by partitioning the compound between octanol and phosphate buffer at pH 7.4 and measuring the concentration of the compound in each layer by LC-MS/MS. […]

[3] = test system: African green monkey P-gp; test: Bidirectional transport, African green monkey P-gp; assay type: in vitro ADME
[4] = test system: CGRP receptor; test: PET CGRP receptor occupancy study in rhesus monkey brain; assay type: in vivo; details: IV bolus plus constant infusion, Hill equation fit, ±SE
Procedure: Baseline PET scans in rhesus monkey have confirmed the uptake and expected regional distribution of the PET tracer of [^11C]-Example 1 in the brain. […] In vivo occupancy studies were carried out with the compound of Example 1 to examine the utility of the PET tracer of [^11C]-Example 1 to establish a drug plasma level/CGRP receptor occupancy relationship. To establish steady plasma levels of drug, the compound of Example 1 was administered as an IV bolus plus constant infusion starting 60 minutes before the PET tracer of [^11C]-Example 1 injection; drug infusion was continued for the duration of the scan. Dynamic PET studies were acquired for 120-min following the PET tracer of [^11C]-Example 1 IV bolus administration. CGRP receptor availability was estimated using data-driven methods to describe the PET tracer of [^11C]-Example 1 plasma-brain kinetics. For each study, the PET tracer of [^11C]-Example 1 plasma concentration was obtained from the measurement of total radioactivity in arterial plasma with correction for the fraction of intact tracer as determined by HPLC analysis.
The absence of a reference region (devoid of CGRP receptor) requires the application of tracer kinetic modeling techniques using the PET tracer of [^11C]-Example 1 arterial plasma concentration in order to accurately quantify CGRP receptor occupancy in rhesus monkey. […]

[5] = test system: rat P-gp; test: Bidirectional transport, rat P-gp; assay type: in vitro ADME
Procedure: [The source words this procedure for another species and reports this species under the same test.] (§3) The bidirectional transport of the compound of Example 1 was evaluated across mono-layers of LLC-PK1 cells over-expressing human P-glycoprotein (Ohe et al., 2003).

[6] = target: adrenomedullin 2 receptor, CLR-RAMP3 (Homo sapiens, UniProt O60896+Q16602); test: Adrenomedullin 2 receptor binding (selectivity)
Procedure: (§4) The octanol/water partition coefficient (Log P) of the compound of Example 1 was determined by partitioning the compound between octanol and phosphate buffer at pH 7.4 and measuring the concentration of the compound in each layer by LC-MS/MS. […] The compound of Example 1 was tested in the receptor binding and functional cell-based assays carried out in the presence and absence of human serum.

[7] = Passive permeability (Papp); assay type: in vitro ADME; details: pig, LLC-PK1, read-out: average apparent permeability coefficient (Papp)
Procedure: as §3

[8] = target: T1, human CGRP receptor (CL receptor/RAMP1); test: Recombinant receptor cAMP functional assay; assay type: cell-based; details: in the presence of 50% human serum
Procedure: RECOMBINANT RECEPTOR: Human CL receptor (Genbank accession number L76380) was subcloned into the expression vector pIREShyg2 (BD Biosciences Clontech) as a 5′NheI and 3′ PmeI fragment. Human RAMP1 (Genbank accession number AJ001014) was subcloned into the expression vector pIRESpuro2 (BD Biosciences Clontech) as a 5′NheI and 3′NotI fragment. HEK 293 cells (human embryonic kidney cells; ATCC #CRL-1573) were cultured in DMEM with 4.5 g/L glucose, 1 mM sodium pyruvate and 2 mM glutamine supplemented with 10% fetal bovine serum (FBS), 100 units/mL penicillin and 100 μg/mL streptomycin, and maintained at 37° C. and 95% humidity. Cells were subcultured by treatment with 0.25% trypsin with 0.1% EDTA in HBSS. […]
RECOMBINANT RECEPTOR FUNCTIONAL ASSAY: Cells were plated in complete growth medium at 85,000 cells/well in 96-well poly-D-lysine coated plates (Corning) and cultured for ˜19 h before assay. […] Dose response curves were plotted and IC50 values determined from a 4-parameter logistic fit as defined by the equation y=((a−d)/(1+(x/c)^b)+d, where y=response, x=dose, a=max response, d=min response, c=inflection point and b=slope.
as §2

[9] = target: T2, human P-glycoprotein (P-gp) (Homo sapiens, UniProt P08183); test: Bidirectional transport across LLC-PK1 monolayers, human P-gp; assay type: in vitro ADME; details: LLC-PK1, human P-gp, read-out: B−A/A−B ratio
T2 construct: expressed in transfected cells; host or cells: LLC-PK1
Procedure: as §3

[10] = target: T3, human P-glycoprotein (Homo sapiens, UniProt P08183); test: as above; assay type: in vitro ADME
T3 construct: expressed in transfected cells; host or cells: LLC-PK1
Procedure: as §3

[11] = Octanol/water partition coefficient (Log P); assay type: physicochemical; details: octanol / phosphate buffer pH 7.4, LC-MS/MS
Procedure: as §4

[12] = target: T4, human AMY3 receptor (CTR/RAMP3) (Homo sapiens, UniProt O60896+P30988); test: Amylin 3 receptor binding
T4 sequence (P30988 25-474): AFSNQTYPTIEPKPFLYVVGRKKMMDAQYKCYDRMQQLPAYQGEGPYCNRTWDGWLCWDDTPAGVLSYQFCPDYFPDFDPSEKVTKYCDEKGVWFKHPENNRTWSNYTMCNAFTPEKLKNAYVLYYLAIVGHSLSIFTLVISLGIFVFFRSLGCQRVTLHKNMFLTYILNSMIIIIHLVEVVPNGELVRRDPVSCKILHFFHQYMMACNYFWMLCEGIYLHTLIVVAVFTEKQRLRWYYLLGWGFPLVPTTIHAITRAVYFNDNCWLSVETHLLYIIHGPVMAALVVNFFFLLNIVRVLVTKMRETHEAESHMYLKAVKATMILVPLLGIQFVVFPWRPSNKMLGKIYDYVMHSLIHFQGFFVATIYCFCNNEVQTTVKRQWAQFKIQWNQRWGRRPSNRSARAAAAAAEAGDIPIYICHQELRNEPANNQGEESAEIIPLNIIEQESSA
T4 sequence (O60896 24-148): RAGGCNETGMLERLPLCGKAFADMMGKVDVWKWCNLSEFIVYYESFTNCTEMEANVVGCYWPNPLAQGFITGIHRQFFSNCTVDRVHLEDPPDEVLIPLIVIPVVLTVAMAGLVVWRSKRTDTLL
Procedure: as §1

T2 sequence (P08183 whole entry): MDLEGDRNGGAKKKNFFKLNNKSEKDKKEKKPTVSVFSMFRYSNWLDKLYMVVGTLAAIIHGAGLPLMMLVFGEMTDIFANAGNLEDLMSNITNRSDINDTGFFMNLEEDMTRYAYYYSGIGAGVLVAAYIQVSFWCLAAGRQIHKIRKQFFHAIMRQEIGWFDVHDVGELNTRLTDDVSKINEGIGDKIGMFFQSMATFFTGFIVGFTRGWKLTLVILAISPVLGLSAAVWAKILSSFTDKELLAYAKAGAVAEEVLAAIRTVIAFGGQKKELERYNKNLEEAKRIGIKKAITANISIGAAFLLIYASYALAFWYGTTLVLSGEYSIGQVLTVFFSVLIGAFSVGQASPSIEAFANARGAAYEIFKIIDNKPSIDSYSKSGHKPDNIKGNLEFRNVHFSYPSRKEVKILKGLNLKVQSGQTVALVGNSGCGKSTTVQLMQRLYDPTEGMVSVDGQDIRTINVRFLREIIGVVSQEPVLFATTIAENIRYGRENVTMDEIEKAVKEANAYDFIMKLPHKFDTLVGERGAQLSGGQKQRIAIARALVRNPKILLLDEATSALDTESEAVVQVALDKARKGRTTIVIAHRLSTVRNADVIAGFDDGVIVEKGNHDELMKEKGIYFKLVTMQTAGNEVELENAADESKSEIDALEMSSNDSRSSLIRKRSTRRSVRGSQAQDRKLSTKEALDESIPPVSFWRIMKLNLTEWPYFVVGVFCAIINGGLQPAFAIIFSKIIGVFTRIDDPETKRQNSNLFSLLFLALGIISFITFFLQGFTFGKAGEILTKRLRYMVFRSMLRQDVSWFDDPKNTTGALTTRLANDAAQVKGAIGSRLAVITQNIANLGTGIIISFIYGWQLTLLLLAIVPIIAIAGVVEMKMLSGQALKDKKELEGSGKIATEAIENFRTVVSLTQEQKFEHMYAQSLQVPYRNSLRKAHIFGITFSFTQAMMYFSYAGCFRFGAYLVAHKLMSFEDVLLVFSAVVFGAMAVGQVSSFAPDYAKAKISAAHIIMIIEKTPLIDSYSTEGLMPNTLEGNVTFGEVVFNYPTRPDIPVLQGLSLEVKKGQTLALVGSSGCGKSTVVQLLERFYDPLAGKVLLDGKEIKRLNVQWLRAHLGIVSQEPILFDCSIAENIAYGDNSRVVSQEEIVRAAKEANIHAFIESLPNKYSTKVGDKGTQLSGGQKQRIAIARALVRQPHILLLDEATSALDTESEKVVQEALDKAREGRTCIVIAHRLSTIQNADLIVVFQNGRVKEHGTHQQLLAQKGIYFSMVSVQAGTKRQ
T3 sequence (P08183 whole entry): as above
T1 sequence (Q16602 23-461): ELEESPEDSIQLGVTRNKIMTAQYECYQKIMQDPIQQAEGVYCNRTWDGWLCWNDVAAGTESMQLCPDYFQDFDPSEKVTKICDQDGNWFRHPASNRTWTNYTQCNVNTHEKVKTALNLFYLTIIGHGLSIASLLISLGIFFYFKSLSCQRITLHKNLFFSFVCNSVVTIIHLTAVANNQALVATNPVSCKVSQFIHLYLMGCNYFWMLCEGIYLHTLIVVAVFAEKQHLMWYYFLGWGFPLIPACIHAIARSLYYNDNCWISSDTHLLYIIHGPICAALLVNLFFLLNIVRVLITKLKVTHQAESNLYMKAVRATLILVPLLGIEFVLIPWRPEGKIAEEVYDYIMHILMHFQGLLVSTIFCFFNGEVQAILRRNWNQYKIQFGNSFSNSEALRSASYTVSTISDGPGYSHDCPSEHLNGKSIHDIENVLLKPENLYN
T1 sequence (O60894 27-148): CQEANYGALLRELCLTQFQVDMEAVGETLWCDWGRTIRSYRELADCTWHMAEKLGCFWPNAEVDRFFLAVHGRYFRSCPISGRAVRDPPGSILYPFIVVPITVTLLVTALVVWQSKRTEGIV
human AMY1 receptor (CTR/RAMP1), sequence (O60894 27-148, one chain of several): as the sequence (O60894 27-148) above
adrenomedullin 2 receptor, CLR-RAMP3, sequence (Q16602 23-461, one chain of several): as the sequence (Q16602 23-461) above

Ki [1]: 600 pM | Ki [2]: 39 pM | P-gp substrate status ([3]; African green monkey P-gp, 1, 0.5 and 0.1 μM): weak substrate | efflux ratio at 0.1 μM ([3]; LLC-PK1, African green monkey P-gp, 0.1 μM, read-out: B−A/A−B ratio): 5.4 | efflux ratio at 0.5 μM ([3]; LLC-PK1, African green monkey P-gp, 0.5 μM, read-out: B−A/A−B ratio): 4.1 | efflux ratio at 1 μM ([3]; LLC-PK1, African green monkey P-gp, 1 μM, read-out: B−A/A−B ratio): 3.9 | P-gp substrate status ([5]; 5 μM): borderline substrate | efflux ratio at 5 μM ([5]; LLC-PK1, read-out: B−A/A−B ratio): 3.1 | Ki [6]: 211000 pM | Papp [7]: 26 ×10⁻⁶ cm/s | IC50 [8]: 210 pM | efflux ratio at 0.1 μM ([9]; 0.1 μM): 3.5 | efflux ratio at 0.5 μM ([9]; 0.5 μM): 2.9 | efflux ratio at 1 μM ([9]; 1 μM): 3 | efflux ratio at 5 μM ([9]; 5 μM): 1.7 | P-gp substrate status ([10]; human P-gp, 5 μM): not a substrate | P-gp substrate status ([10]; human P-gp, 1, 0.5 and 0.1 μM): weak substrate | logP [11]: 3.38 | Ki [12]: 212000 pM
SMILES: CN1C[C@@](C)(c2cc(F)cc(F)c2)N(CC(=O)Nc2ccc3c(c2)C[C@@]2(C3)C(=O)Nc3ncccc32)C(=O)C12CCCC2 [Example 1, 2-[(8R)-8-(3,5-Difluorophenyl)-6,8-dimethyl-10-oxo-6,9-diazaspiro[4.5]dec-9-yl]-N-[(2R)-2′-oxo-1,1′,2′,3-tetrahydrospiro[indene-2,3′-pyrrolo[2,3-b]pyridin]-5-yl]acetamide]
Occ50: plasma level for 50% CGRP receptor occupancy [4]: ~11 nM and 11 ± 3 nM
